Starred links: 1 amine or outer side, 2 acyl side, 3 side chain; linkers in the order of their positions; H or OH if unused. Positions of bridges follow the written chain, without caps; N, C: chain ends. Non-standard residues stand in square brackets, D forms with d. Residues, ends and D or L forms follow the SMILES beside them. *: point of attachment. NMeAbu(3,3-F2-piperidino) = CN[C@@H](CCN1CCCC(F)(F)C1)C(=O)O; hPhe(3-Cl-4-CF3) = N[C@@H](CCc1ccc(C(F)(F)F)c(Cl)c1)C(=O)O; NMePhe(4-CF3) = CN[C@@H](Cc1ccc(C(F)(F)F)cc1)C(=O)O; 3Oxa8azabicyclo(3.2.1)octane = C1CC2COCC1N2*; NMeAbu(4,4,4-F3) = CN[C@@H](CC(F)(F)F)C(=O)O; NMePhe(4-Br) = CN[C@@H](Cc1ccc(Br)cc1)C(=O)O; NMePhe(4-Me) = CN[C@@H](Cc1ccc(C)cc1)C(=O)O; NMedβ3hAla = C[C@H](CC(=O)[*:2])N(C)[*:1]; NMeAla(cPent) = CN[C@@H](CC1CCCC1)C(=O)O; NMeAla(cPr) = CN[C@@H](CC1CC1)C(=O)O; NMeGly(cBu) = CN[C@H](C(=O)O)C1CCC1; NMeCha = CN[C@@H](CC1CCCCC1)C(=O)O; Pro(4-oxo) = O=C1CN[C@H](C(=O)O)C1; NEtLeu = CCN[C@@H](CC(C)C)C(=O)O; NMeChg = CN[C@H](C(=O)O)C1CCCCC1; NMeI = CC[C@H](C)[C@H](NC)C(=O)O; NMeD = CN[C@@H](CC(=O)O)C(=O)O; NMeL = CN[C@@H](CC(C)C)C(=O)O; NMeV = CN[C@H](C(=O)O)C(C)C; d(β3hA) = C[C@@H](N)CC(=O)O; Morpholide = C1CN(*)CCO1; NMeA = CN[C@@H](C)C(=O)O; Piperidide = C1CCN(*)CC1; Pyrrolidide = C1CCN(*)C1; Ac5c = NC1(C(=O)O)CCCC1; Aze = O=C(O)[C@@H]1CCN1; Sar = CNCC(=O)O
How the values were obtained:
[1] = system: Human pancreatic cancer cell line AsPC-1; assay: Measurement of AsPC-1 cell growth inhibition (AsPC-1 CGI); assay type: cell-based; conditions: 96 h
How it was run: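 AsPC-1 cells in 15% FBS RPMI-1640 were exposed to test compound for 96 hours at 37° C, with CellTiter-Glo as endpoint.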

[2] = molecular target: T1, Kras and SOS1 (biotin-tagged human Kras loaded with GDP, His-tagged human SOS1) (Homo sapiens, UniProt P01116, G12D); assay: Protein-protein interaction inhibition between Kras and SOS1 (KrasGl2D-SOS PPI) using AlphaScreen; assay type: binding; conditions: AlphaScreen; biotin-tagged human Kras loaded with GDP, His-tagged human SOS1; read-out: KRAS G12D-SOS PPI IC50
T1 construct: made in house; host or cells: E. coli (stated for Kras only)
How it was run: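 AlphaScreen format: Ni donor beads capture His-SOS1, streptavidin acceptor beads capture biotinylated Kras (E. coli-expressed, GDP-loaded post-purification). Excite 680 nm, read 520-620 nm.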

T1 sequence (P01116 1-188 isoform P01116-2 G12D): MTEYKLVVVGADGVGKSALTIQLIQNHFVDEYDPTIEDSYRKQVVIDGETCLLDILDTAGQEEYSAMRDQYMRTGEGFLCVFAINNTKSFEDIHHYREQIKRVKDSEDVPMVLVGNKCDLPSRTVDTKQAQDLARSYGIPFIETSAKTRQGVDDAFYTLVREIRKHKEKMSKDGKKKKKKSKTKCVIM

Row | SMILES | IC50 [1] [nM] | IC50 [2] [nM]
1 | CC[C@H](C)[C@@H]1NC(=O)[C@H](CC(C)C)N(C)C(=O)C[C@@H](C)N(C)C(=O)[C@H](C(C)C)N(C)C(=O)C2(CCCC2)NC(=O)[C@@H]2CCCN2C(=O)[C@H](CCc2ccc(C(F)(F)F)c(Cl)c2)NC(=O)CN(C)C(=O)[C@H](Cc2ccc(C)cc2)N(C)C(=O)CN(C)C(=O)CN(C)C1=O [Compound 1549] (cyclo([Ac5c][NMeV][NMedβ3hAla][NMeL]I[Sar][Sar][NMePhe(4-Me)][Sar][hPhe(3-Cl-4-CF3)]P)) | 50 to 100 | 3.6
2 | CO[C@H](C)[C@@H]1NC(=O)[C@H](CC(C)C)N(C)C(=O)C[C@@H](C(=O)N2CCCCC2)N(C)C(=O)[C@H](C2CCCCC2)N(C)C(=O)C2(CCCC2)NC(=O)[C@@H]2CCCN2C(=O)[C@H](CCc2ccc(C(F)(F)F)c(Cl)c2)NC(=O)CN(C)C(=O)[C@H](CC2CCCCC2)N(C)C(=O)CN(C)C(=O)CN(C)C1=O [Compound 535] ([NMeL]T(Me)[Sar][Sar][NMeCha][Sar][hPhe(3-Cl-4-CF3)]P[Ac5c][NMeChg][NMeD]-Piperidide; lactam N-11) | 50 to 100 | 0.65
3 | CC[C@H](C)[C@@H]1NC(=O)[C@H](C2CCC2)N(C)C(=O)C[C@@H](C(=O)N2CCCC2)N(C)C(=O)[C@H](C2CCCCC2)N(C)C(=O)C2(CCCC2)NC(=O)[C@@H]2CCCN2C(=O)[C@H](CCc2ccc(C(F)(F)F)c(Cl)c2)NC(=O)CN(C)C(=O)[C@H](Cc2ccc(C(F)(F)F)cc2)N(C)C(=O)CN(C)C(=O)CN(C)C1=O [Compound 73] ([NMeGly(cBu)]I[Sar][Sar][NMePhe(4-CF3)][Sar][hPhe(3-Cl-4-CF3)]P[Ac5c][NMeChg][NMeD]-Pyrrolidide; lactam N-11) | 20 to 50 | 0.33
4 | CC[C@H](C)[C@@H]1NC(=O)[C@H](CC(C)C)N(C)C(=O)C[C@@H](C(=O)N2CCCCC2)N(C)C(=O)[C@H](C(C)C)N(C)C(=O)C2(CCCC2)NC(=O)[C@@H]2CCCN2C(=O)[C@H](CCc2ccc(C(F)(F)F)c(Cl)c2)NC(=O)CN(C)C(=O)[C@H](Cc2ccc(Br)cc2)N(C)C(=O)CN(C)C(=O)CN(C)C1=O [Compound 1576] ([NMeL]I[Sar][Sar][NMePhe(4-Br)][Sar][hPhe(3-Cl-4-CF3)]P[Ac5c][NMeV][NMeD]-Piperidide; lactam N-11) | 100 to 500 | 5.1
5 | CC[C@H](C)[C@@H]1NC(=O)[C@H](C2CCC2)N(C)C(=O)C[C@@H](C(=O)N2CCCC2)N(C)C(=O)[C@H](C2CCCCC2)N(C)C(=O)C2(CCCC2)NC(=O)[C@@H]2CCCN2C(=O)[C@H](CCc2ccc(C(F)(F)F)c(Cl)c2)NC(=O)CN(C)C(=O)[C@H](Cc2ccc(C)cc2)N(C)C(=O)CN(C)C(=O)CN(C)C1=O [Compound 339] ([NMeGly(cBu)]I[Sar][Sar][NMePhe(4-Me)][Sar][hPhe(3-Cl-4-CF3)]P[Ac5c][NMeChg][NMeD]-Pyrrolidide; lactam N-11) | 20 to 50 | 0.38
6 | CC[C@H](C)[C@@H]1NC(=O)[C@H](CC(C)C)N(CC)C(=O)C[C@@H](C(=O)N2CCOCC2)N(C)C(=O)[C@H](C2CCCCC2)N(C)C(=O)C2(CCCC2)NC(=O)[C@@H]2CCCN2C(=O)[C@H](CCc2ccc(C(F)(F)F)c(Cl)c2)NC(=O)CN(C)C(=O)[C@H](CC2CCCCC2)N(C)C(=O)CN(C)C(=O)CN(C)C1=O [Compound 1189] ([NEtLeu]I[Sar][Sar][NMeCha][Sar][hPhe(3-Cl-4-CF3)]P[Ac5c][NMeChg][NMeD]-Morpholide; lactam N-11) | 50 to 100 | 0.74
7 | CC[C@H](C)[C@@H]1NC(=O)[C@H](CC(C)C)N(C)C(=O)C[C@@H](C)N(C)C(=O)[C@H](CC2CC2)N(C)C(=O)C2(CCCC2)NC(=O)[C@@H]2CCCN2C(=O)[C@H](CCc2ccc(C(F)(F)F)c(Cl)c2)NC(=O)CN(C)C(=O)[C@H](CC2CCCCC2)N(C)C(=O)CN(C)C(=O)CN(C)C1=O [Compound 1019] (cyclo([Ac5c][NMeAla(cPr)][NMedβ3hAla][NMeL]I[Sar][Sar][NMeCha][Sar][hPhe(3-Cl-4-CF3)]P)) | 100 to 500 | 14
8 | CC(C)C[C@H]1C(=O)N[C@@H](C(C)C)C(=O)N(C)CC(=O)N(C)CC(=O)N(C)[C@@H](CC2CCCCC2)C(=O)N(C)CC(=O)N[C@@H](CCc2ccc(C(F)(F)F)c(Cl)c2)C(=O)N2CCC[C@H]2C(=O)NC2(CCCC2)C(=O)N(C)[C@@H](C2CCCCC2)C(=O)N(C)[C@H](C(=O)N2C3CCC2COC3)CC(=O)N1C [Compound 1928] ([NMeL]V[Sar][Sar][NMeCha][Sar][hPhe(3-Cl-4-CF3)]P[Ac5c][NMeChg][NMeD]-{3Oxa8azabicyclo(3.2.1)octane}; lactam N-11) | 100 to 500 | 0.5
9 | CC[C@H](C)[C@@H]1NC(=O)[C@H](C)N(C)C(=O)C[C@@H](C(=O)N2CCCCC2)N(C)C(=O)[C@H](C(C)C)N(C)C(=O)C2(CCCC2)NC(=O)[C@@H]2CCCN2C(=O)[C@H](CCc2ccc(C(F)(F)F)c(Cl)c2)NC(=O)CN(C)C(=O)[C@H](CC2CCCCC2)N(C)C(=O)CN(C)C(=O)CN(C)C1=O [Compound 360] ([NMeA]I[Sar][Sar][NMeCha][Sar][hPhe(3-Cl-4-CF3)]P[Ac5c][NMeV][NMeD]-Piperidide; lactam N-11) | 100 to 500 | 2.8
10 | CC[C@H](C)[C@@H]1NC(=O)[C@H](CC(C)C)N(C)C(=O)C[C@@H](C(=O)N(C)C)N(C)C(=O)[C@H]([C@@H](C)CC)N(C)C(=O)C2(CCCC2)NC(=O)[C@H](CCN2CCCC(F)(F)C2)N(C)C(=O)[C@H](CCc2ccc(C(F)(F)F)c(Cl)c2)NC(=O)CN(C)C(=O)[C@H](Cc2ccc(C)cc2)N(C)C(=O)[C@@H]2CCN2C(=O)[C@H](C)N(C)C1=O [Compound 818] ([NMeL]I[NMeA][Aze][NMePhe(4-Me)][Sar][hPhe(3-Cl-4-CF3)][NMeAbu(3,3-F2-piperidino)][Ac5c][NMeI][NMeD]-NMe2; lactam N-11) | 20 to 50 | 1.2
11 | CC[C@H](C)[C@@H]1NC(=O)[C@H](C2CCCCC2)N(C)C(=O)C[C@@H](C)NC(=O)[C@H](C(C)C)N(C)C(=O)C2(CCCC2)NC(=O)[C@@H]2CCCN2C(=O)[C@H](CCc2ccc(C(F)(F)F)c(Cl)c2)NC(=O)CN(C)C(=O)[C@H](CC2CCCCC2)N(C)C(=O)CN(C)C(=O)CN(C)C1=O [Compound 456] (cyclo([Ac5c][NMeV][d(β3hA)][NMeChg]I[Sar][Sar][NMeCha][Sar][hPhe(3-Cl-4-CF3)]P)) | 100 to 500 | 34
12 | CC[C@H](C)[C@@H]1NC(=O)[C@H](CC(F)(F)F)N(C)C(=O)C[C@@H](C(=O)N2CCCCC2)N(C)C(=O)[C@H](C(C)C)N(C)C(=O)C2(CCCC2)NC(=O)[C@@H]2CCCN2C(=O)[C@H](CCc2ccc(C(F)(F)F)c(Cl)c2)NC(=O)CN(C)C(=O)[C@H](CC2CCCCC2)N(C)C(=O)[C@@H]2CCN2C(=O)[C@H](C)N(C)C1=O [Compound 1704] ([NMeAbu(4,4,4-F3)]I[NMeA][Aze][NMeCha][Sar][hPhe(3-Cl-4-CF3)]P[Ac5c][NMeV][NMeD]-Piperidide; lactam N-11) | 100 to 500 | 6
13 | CC[C@H](C)[C@@H]1NC(=O)[C@H](CC(C)C)N(C)C(=O)C[C@@H](C(=O)N2CCCCC2)N(C)C(=O)[C@H](C2CCCCC2)N(C)C(=O)C2(CCCC2)NC(=O)[C@@H]2CC(=O)CN2C(=O)[C@H](CCc2ccc(C(F)(F)F)c(Cl)c2)NC(=O)CN(C)C(=O)[C@H](CC2CCCCC2)N(C)C(=O)CN(C)C(=O)CN(C)C1=O [Compound 1022] ([NMeL]I[Sar][Sar][NMeCha][Sar][hPhe(3-Cl-4-CF3)][Pro(4-oxo)][Ac5c][NMeChg][NMeD]-Piperidide; lactam N-11) | 100 to 500 | 0.42
14 | CC[C@H](C)[C@@H]1NC(=O)[C@H](CC2CCCC2)N(C)C(=O)C[C@@H](C(=O)N2CCCCC2)N(C)C(=O)[C@H](C2CCCCC2)N(C)C(=O)C2(CCCC2)NC(=O)[C@@H]2CCCN2C(=O)[C@H](CCc2ccc(C(F)(F)F)c(Cl)c2)NC(=O)CN(C)C(=O)[C@H](CC2CCCCC2)N(C)C(=O)CN(C)C(=O)CN(C)C1=O [Compound 1663] ([NMeAla(cPent)]I[Sar][Sar][NMeCha][Sar][hPhe(3-Cl-4-CF3)]P[Ac5c][NMeChg][NMeD]-Piperidide; lactam N-11) | 100 to 500 | 1.6
15 | CC(C)C[C@H]1C(=O)N[C@@H](C(C)C)C(=O)N(C)CC(=O)N(C)CC(=O)N(C)[C@@H](CC2CCCCC2)C(=O)N(C)CC(=O)N[C@@H](CCc2ccc(C(F)(F)F)c(Cl)c2)C(=O)N2CCC[C@H]2C(=O)NC2(CCCC2)C(=O)N(C)[C@@H](C2CCCCC2)C(=O)N(C)[C@H](C(=O)N2CCOCC2)CC(=O)N1C [Compound 1908] ([NMeL]V[Sar][Sar][NMeCha][Sar][hPhe(3-Cl-4-CF3)]P[Ac5c][NMeChg][NMeD]-Morpholide; lactam N-11) | 50 to 100 | 0.65
16 | CC[C@H](C)[C@@H]1NC(=O)[C@H](C2CCC2)N(C)C(=O)C[C@@H](C(=O)N2C3CCC2COC3)N(C)C(=O)[C@H](C2CCCCC2)N(C)C(=O)C2(CCCC2)NC(=O)[C@@H]2CCCN2C(=O)[C@H](CCc2ccc(C(F)(F)F)c(Cl)c2)NC(=O)CN(C)C(=O)[C@H](Cc2ccc(C)cc2)N(C)C(=O)CN(C)C(=O)CN(C)C1=O [Compound 353] ([NMeGly(cBu)]I[Sar][Sar][NMePhe(4-Me)][Sar][hPhe(3-Cl-4-CF3)]P[Ac5c][NMeChg][NMeD]-{3Oxa8azabicyclo(3.2.1)octane}; lactam N-11) | 50 to 100 | 0.69
17 | CC[C@H](C)[C@@H]1NC(=O)[C@H](C2CCC2)N(C)C(=O)C[C@@H](C(=O)N2CCCCC2)N(C)C(=O)[C@H](C(C)C)N(C)C(=O)C2(CCCC2)NC(=O)[C@@H]2CCCN2C(=O)[C@H](CCc2ccc(C(F)(F)F)c(Cl)c2)NC(=O)CN(C)C(=O)[C@H](CC2CCCCC2)N(C)C(=O)CN(C)C(=O)CN(C)C1=O [Compound 948] ([NMeGly(cBu)]I[Sar][Sar][NMeCha][Sar][hPhe(3-Cl-4-CF3)]P[Ac5c][NMeV][NMeD]-Piperidide; lactam N-11) | 50 to 100 | 3.1

Source: patent US12371454B2, “Cyclic peptide compound having Kras inhibitory action” (priority 2019, dated 2025)
